From US20210309631A1, “SALT OF CYCLOHEXANE DERIVATIVE” (priority 2018, published 2021)

Key:
solubility in water = assay type: physicochemical; conditions: listed as sulfate Form A
[1] = Hygroscopicity (DVS) experiment, 25° C./80% relative humidity; assay type: physicochemical
Description: Dynamic vapor sorption curves were collected on a DVS Intrinsic by SMS (Surface Measurement Systems).
20 mg sample of the crystal forms of the Examples and Comparative Examples are placed in the environment of 25° C./80% relative humidity for a dynamic vapor sorption (DVS) test, and the test results […] are shown in Table 5.

[2] = Plasma pharmacokinetics in SD rats after single intragastric administration (Example 7); assay type: in vivo; conditions: intragastric 1 mg/kg, Mean ± SD, non-compartmental model, listed as Sulfate
Description: The in vivo absorption process and characteristics of the free base and four salts thereof (sulfate, hydrochloride salt, phosphate, maleate) of compound (I) in rats were studied. The pharmacokinetics of a single intragastric administration of 1 mg/kg of a compound of Formula I and four salts thereof (calculated by free base concentration in salt form) were studied in SD rats.
SD rats were given a single intragastric administration of 1 mg/kg free base of Example 1 and four salts thereof (including hydrochloride salt from Example 2, sulfate from Example 3, phosphate from Example 4 and maleate from Example 5). There were 4 male rats in each group. The concentration of the compound of Formula I in plasma was determined, and the pharmacokinetic parameters were calculated according to the concentration-time curve.

[3] = In vivo individual difference analysis: individual plasma concentration versus time in rats (Example 8); parameters: species or system SD rats; conditions: intragastric 1 mg/kg, listed as Sulfate of Compound of Formula I
Description: Compound of Formula I and salts thereof (sulfate, hydrochloride salt, phosphate, maleate), supplied by Shanghai Jingxin Biopharmaceutical Co., Ltd. • Strain: SD rats; Gender: male; Body weight: about 250 grams; Source: shanghai Jiesijie Experimental Animal Co., Ltd Route: single intragastric administration; Capacity: measured in 10 mL/kg body weight Preparation: weighing appropriate amount of the free base or salt of the compound of Formula I, adding a small amount of 0.5% CMC-Na to grind, adding 0.5% CMC-Na to the volume. The concentration is measured as the base. 20 SD rats were divided into 5 groups with 4 rats in each group, fasted for 12 h and drank freely before administration. […] The blood was anticoagulated with 1% heparin, the plasma was separated by 8000 rpm centrifugation for 4 min and stored at -40° C. for testing. LC-MS/MS Method. Pharmacokinetic parameters after administration in rats were calculated using a non-compartmental model of DAS 2.0 software.

[4] = DVS, 25° C./80% relative humidity, listed as Example 3 sulfate

SMILES: CN(C)C(=O)N[C@H]1CC[C@H](CCN2CCN(c3cccc4ccsc34)CC2)CC1 [Example 3, N′-[trans-4-[2-[7-(benzo[b]thiophene)-7-piperazinyl]ethyl]cyclohexyl]-N,N-dimethylurea]
- solubility in water (solubility in water): greater than 8.0 mg/ml
- Hygroscopicity [1, 4]: Slight
- Vapor sorption [1, 4]: 0.23%
- The crystal form changes after DVS testing or not ([1]; after DVS testing): No
- MRT0-∞ [2]: 2.87 ± 0.283 h
- Tmax [2]: 0.417 ± 0.096 h
- t1/2 [2]: 2.67 ± 0.267 h
- Plasma Concentrations of Compound of Formula I ([3]; 5 min after administration, Mean ± SD): 2.25 ± 0.476 ng/mL
- Plasma Concentrations of Compound of Formula I ([3]; 5 min after administration, rat 1♂): 1.54 ng/mL
- Plasma Concentrations of Compound of Formula I ([3]; 5 min after administration, rat 2♂): 2.41 ng/mL
- Plasma Concentrations of Compound of Formula I ([3]; 5 min after administration, rat 3♂): 2.56 ng/mL
- Plasma Concentrations of Compound of Formula I ([3]; 5 min after administration, rat 4♂): 2.48 ng/mL
- Plasma Concentrations of Compound of Formula I ([3]; 0.167 h after administration, Mean ± SD): 21.7 ± 2.45 ng/mL
- Plasma Concentrations of Compound of Formula I ([3]; 0.167 h after administration, rat 1♂): 24.0 ng/mL
- Plasma Concentrations of Compound of Formula I ([3]; 0.167 h after administration, rat 2♂): 18.4 ng/mL
- Plasma Concentrations of Compound of Formula I ([3]; 0.167 h after administration, rat 3♂): 23.0 ng/mL
- Plasma Concentrations of Compound of Formula I ([3]; 0.167 h after administration, rat 4♂): 21.3 ng/mL
- Plasma Concentrations of Compound of Formula I ([3]; 0.333 h after administration, Mean ± SD): 51.2 ± 2.32 ng/mL
- Plasma Concentrations of Compound of Formula I ([3]; 0.333 h after administration, rat 1♂): 50.4 ng/mL
- Plasma Concentrations of Compound of Formula I ([3]; 0.333 h after administration, rat 2♂): 54.4 ng/mL
- Plasma Concentrations of Compound of Formula I ([3]; 0.333 h after administration, rat 3♂): 51.0 ng/mL
- Plasma Concentrations of Compound of Formula I ([3]; 0.333 h after administration, rat 4♂): 48.9 ng/mL
- Plasma Concentrations of Compound of Formula I ([3]; 0.5 h after administration, Mean ± SD): 49.9 ± 10.4 ng/mL
- Plasma Concentrations of Compound of Formula I ([3]; 0.5 h after administration, rat 1♂): 56.0 ng/mL
- Plasma Concentrations of Compound of Formula I ([3]; 0.5 h after administration, rat 2♂): 36.0 ng/mL
- Plasma Concentrations of Compound of Formula I ([3]; 0.5 h after administration, rat 3♂): 48.0 ng/mL
- Plasma Concentrations of Compound of Formula I ([3]; 0.5 h after administration, rat 4♂): 59.4 ng/mL
- Plasma Concentrations of Compound of Formula I ([3]; 1 h after administration, Mean ± SD): 39.2 ± 6.84 ng/mL
- Plasma Concentrations of Compound of Formula I ([3]; 1 h after administration, rat 1♂): 42.6 ng/mL
- Plasma Concentrations of Compound of Formula I ([3]; 1 h after administration, rat 2♂): 30.0 ng/mL
- Plasma Concentrations of Compound of Formula I ([3]; 1 h after administration, rat 3♂): 38.5 ng/mL
- Plasma Concentrations of Compound of Formula I ([3]; 1 h after administration, rat 4♂): 45.8 ng/mL
- Plasma Concentrations of Compound of Formula I ([3]; 2 h after administration, Mean ± SD): 23.2 ± 7.54 ng/mL
- Plasma Concentrations of Compound of Formula I ([3]; 2 h after administration, rat 1♂): 32.7 ng/mL
- Plasma Concentrations of Compound of Formula I ([3]; 2 h after administration, rat 2♂): 14.5 ng/mL
- Plasma Concentrations of Compound of Formula I ([3]; 2 h after administration, rat 3♂): 24.1 ng/mL
- Plasma Concentrations of Compound of Formula I ([3]; 2 h after administration, rat 4♂): 21.3 ng/mL
- Plasma Concentrations of Compound of Formula I ([3]; 4 h after administration, Mean ± SD): 7.92 ± 3.01 ng/mL
- Plasma Concentrations of Compound of Formula I ([3]; 4 h after administration, rat 1♂): 10.3 ng/mL
- Plasma Concentrations of Compound of Formula I ([3]; 4 h after administration, rat 2♂): 4.31 ng/mL
- Plasma Concentrations of Compound of Formula I ([3]; 4 h after administration, rat 3♂): 10.5 ng/mL
- Plasma Concentrations of Compound of Formula I ([3]; 4 h after administration, rat 4♂): 6.57 ng/mL
- Plasma Concentrations of Compound of Formula I ([3]; 6 h after administration, Mean ± SD): 2.87 ± 1.10 ng/mL
- Plasma Concentrations of Compound of Formula I ([3]; 6 h after administration, rat 1♂): 3.08 ng/mL
- Plasma Concentrations of Compound of Formula I ([3]; 6 h after administration, rat 2♂): 1.35 ng/mL
- Plasma Concentrations of Compound of Formula I ([3]; 6 h after administration, rat 3♂): 3.99 ng/mL
- Plasma Concentrations of Compound of Formula I ([3]; 6 h after administration, rat 4♂): 3.05 ng/mL
- Plasma Concentrations of Compound of Formula I ([3]; 9 h after administration, Mean ± SD): 1.15 ± 0.444 ng/mL
- Plasma Concentrations of Compound of Formula I ([3]; 9 h after administration, rat 1♂): 1.30 ng/mL
- Plasma Concentrations of Compound of Formula I ([3]; 9 h after administration, rat 2♂): 0.643 ng/mL
- Plasma Concentrations of Compound of Formula I ([3]; 9 h after administration, rat 3♂): 1.68 ng/mL
- Plasma Concentrations of Compound of Formula I ([3]; 9 h after administration, rat 4♂): 0.973 ng/mL
- Plasma Concentrations of Compound of Formula I ([3]; 12 h after administration, Mean ± SD): 0.606 ± 0.221 ng/mL
- Plasma Concentrations of Compound of Formula I ([3]; 12 h after administration, rat 1♂): 0.718 ng/mL
- Plasma Concentrations of Compound of Formula I ([3]; 12 h after administration, rat 2♂): 0.317 ng/mL
- Plasma Concentrations of Compound of Formula I ([3]; 12 h after administration, rat 3♂): 0.827 ng/mL
- Plasma Concentrations of Compound of Formula I ([3]; 12 h after administration, rat 4♂): 0.561 ng/mL
- Plasma Concentrations of Compound of Formula I ([3]; 24 h after administration, Mean ± SD): 0.244 ± 0.161 ng/mL
- Plasma Concentrations of Compound of Formula I ([3]; 24 h after administration, rat 1♂): 0.213 ng/mL
- Plasma Concentrations of Compound of Formula I ([3]; 24 h after administration, rat 2♂): 0.135 ng/mL
- Plasma Concentrations of Compound of Formula I ([3]; 24 h after administration, rat 3♂): 0.148 ng/mL
- Plasma Concentrations of Compound of Formula I ([3]; 24 h after administration, rat 4♂): 0.479 ng/mL
